Data set [1] is described as follows: PTR-MS real-time headspace release, watermelon flavor model in water (Example 1). It counts as physicochemical. The arrangement: Sample A (PG) Mean / Sample B (1,3-propanediol) Mean: unit not given here. As to the method:
The impact of 1,3-propanediol on the release of flavor compounds can be analyzed by Proton Transfer Reaction Mass Spectrometry (PTR-MS; model TOF-8000 from Ionicon Analytik Inc.), where real-time headspace release of volatiles is measured. A sampling apparatus is needed in conjunction with the PTR-MS inlet to prevent variations caused by headspace kinetics. By one exemplary approach, the sampling apparatus includes a 4 ounce sample vessel equipped with a 2-hole lid which may be sealed by an adhesive film to allow equilibration. […]. The holes are equal sized (˜2 mm diameter) and match the outer diameter of the PTR-MS inlet line. The flow of the dilution gas into the vessel is regulated by the vacuum and proportional valve of the PTR-MS inlet system. The sample vessel has a base diameter of 47 mm and is 45 mm high, of which 8 mm of height is occupied by the sample in the vessel in these experiments. The 2 holes in the lid are equidistant from the edge of the vessel (˜20 mm) and about 30 mm from each other. The PTR-MS inlet is braced by clamps in a fixed position vertically above the laboratory bench (˜55 mm) and a silicone rubber depth gauge is affixed to the PTR-MS inlet tubing and set at 18 mm. The PTR-MS inlet is thus consistently oriented in a vertical position 18 mm below the inside lid of the vessel and 19 mm above the sample in the vessel. The sample vessel is then held in place during sampling according to the depth gauge on the inlet line and the vessel is subsequently supported on the bench by a 10 mm plastic spacer.
15 grams of the sample to be tested (e.g., food or beverage product containing 1,3-propanediol) are added to the vessel. The vessel is sealed and allowed to equilibrate at room temperature (˜22° C.) for 90 minutes. At the time of sampling, the seal is removed from both the sampling hole and the dilution gas hole in the lid and the vessel is immediately affixed to the PTR-MS inlet via the sampling hole. The real-time released flavor is measured from the headspace of the sample vessel for two minutes (according to the conditions listed in Table 1 below). A comparative sample is prepared that is otherwise identical to the test sample but contains propylene glycol or water instead of 1,3-propanediol. The comparative sample is then analyzed in triplicate by PTR-MS using the above-described procedure. The data can be analyzed using PTR-MS Viewer, Version 3.0.0.101 (Ionicon Analytik G.m.b.H). The point of maximum intensity for each compound of interest can be determined and recorded according to the PTR-MS Viewer software. The maximum intensity in counts over the timescale for each compound of interest can be used for data analysis as it reflects the static equilibrium headspace concentration in the system at the moment of seal removal. Due to the necessity of a dilution gas, the volatile concentration decreases over time as the compounds of interest re-equilibrate to a state of dynamic equilibrium in the headspace.
[…]. Sample A was prepared with 20 grams watermelon flavor concentrate and 80 grams propylene glycol. Sample B was prepared with 20 grams watermelon flavor concentrate and 80 grams 1,3-propanediol. Each of the samples was further diluted by adding 0.08 grams of each diluted concentrate to 99.92 grams water to provide a flavor water solution.
The diluted samples were analyzed by Proton Transfer Reaction Mass Spectrometry (PTR-MS; model TOF-8000 from Ionicon Analytik Inc.) for real-time headspace release volatiles measurement. Samples were analyzed in triplicate. […]. […].

The conditions of data set [2]: not marked (est); cited from earlier work.
Data set [3] in a line: PTR-MS headspace release at various flavor compound to 1,3-propanediol or PG ratios (Example 2). The class given is physicochemical. As to conditions: for Percent Suppression by 1,3-propanediol: (IZ−IPG)/IPG×100. The method, then:
The compounds listed below in Table 3 were added together to provide a liquid flavoring to analyze the role, if any, of the amount of 1,3-propanediol on flavor release. […] The amount of each flavor compound in the beverage was held constant at 8 ppm except furfuryl mercaptan was included at 1.6 ppm while the amount of propylene glycol or 1,3-propanediol varied.
The percent suppression was calculated using the following formula: (IZ−IPG)/IPG×100, where I is peak height, “Z” is 1,3-propanediol and “PG” is propylene glycol.

The nature of data set [4]: PTR-MS headspace release with various non-aqueous liquids (diols) at 0.05:100 (Example 3). It counts as physicochemical. The following applies: ratio 0.05:100; for PTR-MS headspace release in 1,3-butanediol: non-aqueous liquid 1,3-butanediol; for PTR-MS headspace release in 1,3-butanediol / PTR-MS headspace release in 1,3-propanediol / PTR-MS headspace release in 1,4-butanediol / PTR-MS headspace release in 1,7-heptanediol / PTR-MS headspace release in Propylene glycol: diluted in water; for PTR-MS headspace release in 1,3-propanediol: non-aqueous liquid 1,3-propanediol; for PTR-MS headspace release in 1,4-butanediol: non-aqueous liquid 1,4-butanediol; for PTR-MS headspace release in 1,7-heptanediol: non-aqueous liquid 1,7-heptanediol; for PTR-MS headspace release in Propylene glycol: non-aqueous liquid propylene glycol. As to the method: […]. The flavoring was then diluted in water for analysis. The final concentration of each compound was held constant at 8 ppm except furfuryl mercaptan was included at 1.6 ppm to maintain a constant flavor level in the resulting beverage while the non-aqueous liquid varied but the ratio of each compound to non-aqueous liquid was held constant at 0.05:100. A variety of non-aqueous liquids were evaluated, including 1,4-butandiol; 1,7-heptandiol; 1,3-butandiol, propylene glycol, and 1,3-propanediol.
Samples were analyzed by PTR-MS as described in Example 1.
Percent suppression was calculated by the following formula: (I1-3-diol−Ialternate diol)/Ialternate diol×100.

A short description of data set [5]: PTR-MS headspace release from stored beverages, water/solvent experiment (Example 4). The following applies: beverage stored refrigerated; 1.5, 24, 48 and 72 hours; Tukey-Kramer. It counts as physicochemical. The method, then: 0.86 grams of the flavor concentrate was then added to 100 grams of either propylene glycol or 1,3-propanediol to provide diluted concentrates. […].
The beverages were then stored in sealed containers in a refrigerator. The container was opened five times over the course of the experiment and therefore represented a beverage in a sealed container being opened for multiple uses. 15 gram samples were weighed into a 4 ounce cup and analyzed at 1.5 hours, 24 hours, 48 hours, and 72 hours after storage.
The samples were analyzed in triplicate by PTR-MS as described below to determine impact of 1,3-propanediol or propylene glycol on release of the flavors from the beverage. The PTR-MS was performed as follows. A sampling apparatus was needed in conjunction with the PTR-MS inlet to prevent variations caused by headspace kinetics. The sampling apparatus used includes a 4 ounce sample vessel equipped with a 2-hole lid which may be sealed by an adhesive film to allow equilibration. […]. The holes were equal sized (˜2 mm diameter) and match the outer diameter of the PTR-MS inlet line. The flow of the dilution gas into the vessel was regulated by the vacuum and proportional valve of the PTR-MS inlet system. […] The 2 holes in the lid were equidistant from the edge of the vessel (˜20 mm) and ˜30 mm from each other. The PTR-MS inlet was braced by clamps in a fixed position vertically above the laboratory bench (˜55 mm) and a silicone rubber depth gauge was affixed to the PTR-MS inlet tubing and set at 18 mm. The PTR-MS inlet was consistently oriented in a vertical position […] below the inside lid of the vessel and 19 mm above the sample in the vessel. The sample vessel was then held in place during sampling according to the depth gauge on the inlet line and the vessel was subsequently supported on the bench by a 10 mm plastic spacer.
15 grams of the sample to be tested (e.g., food or beverage product containing 1,3-propanediol) are added to the vessel and the vessel is sealed and allowed to equilibrate at room temperature (˜22° C.) for 90 minutes. At the time of sampling, the seal was removed from both the sampling hole and the dilution gas hole in the lid and the vessel was immediately affixed to the PTR-MS inlet via the sampling hole. The real-time released flavor was measured from the headspace of the sample vessel for two minutes (according to the conditions listed in Table 1 above).
The data was analyzed using PTR-MS Viewer, Version 3.0.0.101 (Ionicon Analytik G.m.b.H). The point of maximum intensity for each compound of interest was determined and recorded according to the PTR-MS Viewer software. The maximum intensity in counts over the timescale for each compound of interest was used for data analysis as it reflected the static equilibrium headspace concentration in the system at the moment of seal removal. Due to the necessity of a dilution gas, the volatile concentration decreased over time as the compounds of interest re-equilibrated to a state of dynamic equilibrium in the headspace.
The statistical differences were determined by Tukey-Kramer Honest […]. […].

Data set [6] is described as follows: PTR-MS headspace release in neat solvent, solvent/solvent experiment (Example 5). The class given is physicochemical. Set-up: key to Release Differences: “Z” indicates that 1,3-propanediol had higher equilibrium maximum (meaning more of the flavor was released in 1,3-propanediol); “P” indicates that propylene glycol had higher equilibrium maximum; “-” indicates no statistical difference (95% significance) between the two samples. The following applies: 1.5 hrs equilibration; for Release Differences: 1,3-propanediol versus propylene glycol as sole solvent, 95% significance. The method, then: […]. Then the head space was analyzed as described above.
0.86 grams of the concentrate was added to 100 grams of either propylene glycol or 1,3-propanediol to provide a 1,3-propanediol diluted concentrate or propylene glycol diluted concentrate. The diluted concentrates were then further diluted as outlined in Table 10 below.
A 15 gram sample was weighed into a 4 oz vessel and analyzed at 1.5 hrs. of equilibration time as described in the method of Example 4.

[7] abbreviates: ratio 0.005:100, negative = suppressed vs PG.

“Also recorded” adds a separate entry of the source. Where a name gives a salt, the structure may show the parent alone.

For the compound `CCOC=O` [Ethyl formate], the “Sample B (1,3-propanediol) Mean” value in data set [1] (PTR-MS headspace, watermelon flavor concentrate in 1,3-propanediol, diluted in water, 90 minutes equilibration, mean of three) is reported as 41.67. Besides, in data set [1] (PTR-MS headspace, watermelon flavor concentrate in propylene glycol, diluted in water, 90 minutes equilibration, mean of three), the “Sample A (PG) Mean” value was found to be 50.50. For the same compound, the “Percent Release Difference” value in data set [1] (Sample B (1,3-propanediol) relative to Sample A (PG)) is −17.5%. Also, the “logP (o/w)” value in data set [2] was 0.23.
On to `C=C(C)[C@H]1CC=C(C)CC1` [Limonene], for which the “release suppressed in the presence of 1,3-propanediol” value in data set [3] (10% cut-off for significant difference, relative to PG) was “suppressed”. For the same compound, in data set [3] (setting [7]), the “Percent Suppression by 1,3-propanediol” value is given as −0.1%. For the same compound, in data set [3] (ratio 0.05:100), the “Percent Suppression by 1,3-propanediol” value was −25.2%. In addition, the “Percent Suppression by 1,3-propanediol” value in data set [3] (ratio 5:100) is −34.8%. The “Percent Suppression by 1,3-propanediol” value in data set [3] (ratio 15:100) came to 23.5%. Besides, in data set [4], the “PTR-MS headspace release in 1,3-butanediol” value amounted to 13.5, the “PTR-MS headspace release in 1,3-propanediol” value came out at 4.9, the “PTR-MS headspace release in 1,4-butanediol” value worked out at 59.7 and the “PTR-MS headspace release in 1,7-heptanediol” value stood at 59.5. In data set [4], the “PTR-MS headspace release in Propylene glycol” value turned out to be 6.55 and the “Percent suppression by 1,3-butanediol relative to 1,4-butanediol” value was −343.5%. Also, the “effect of 1,3-propanediol on flavor release relative to propylene glycol, water/solvent” value in data set [5] is recorded as “little effect; also recorded: no significant difference”. In data set [6], the “Release Differences” value is recorded as “Z” and the “release in 1,3-propanediol versus propylene glycol, solvent/solvent” value is “released faster in 1,3-propanediol”.
As to `CCCCCCCCO` [Octanol], the “Percent Suppression by 1,3-propanediol” value in data set [3] (setting [7]) came out at 8.5%. In data set [3] (ratio 0.05:100), the “Percent Suppression by 1,3-propanediol” value is −11.4%. The “Percent Suppression by 1,3-propanediol” value in data set [3] (ratio 5:100) is −19.1%. Besides, the “Percent Suppression by 1,3-propanediol” value in data set [3] (ratio 15:100) is given as −0.6%. For the same compound, in data set [4], the “PTR-MS headspace release in 1,3-butanediol” value is on record as 4.0, the “PTR-MS headspace release in 1,3-propanediol” value was determined as 1.05, the “PTR-MS headspace release in 1,4-butanediol” value worked out at 5.1 and the “PTR-MS headspace release in 1,7-heptanediol” value is 6.2. Further, in data set [4], the “PTR-MS headspace release in Propylene glycol” value came out at 1.19 and the “Percent suppression by 1,3-butanediol relative to 1,4-butanediol” value is on record as −27.5%. The “effect of 1,3-propanediol on flavor release relative to propylene glycol, water/solvent” value in data set [5] is given as “significantly suppressed release; also recorded: released faster in propylene glycol”. For the same compound, in data set [6], the “Release Differences” value is “P” and the “release in 1,3-propanediol versus propylene glycol, solvent/solvent” value is given as “no significant difference”.

The values are drawn from patent US9883691B2, “Food and beverage products containing 1,3-propanediol and methods of modifying flavor release using 1,3-propanediol” (Kraft Foods Group Brands LLC, priority 2012, dated 2018).
